According to patent publication US20230338315A1, “METHOD OF PRODUCING PHARMACEUTICAL COCRYSTALS FOR ADDITIVE MANUFACTURING” (BOARD OF REGENTS, THE UNIVERSITY OF TEXAS SYSTEM, priority 2020, published 2023):

How the values were obtained:
[1] = cited from earlier work
[2] = Preformulation studies: solubility in solvents; format: physicochemical; conditions: for Soluble in solvent ET-Acetate: solvent ethyl acetate
Procedure: Both the drug and conformer were soluble in ethyl acetate. Ethyl acetate was used to prepare pure MA-SAC cocrystals using slow solvent evaporation. Briefly, 1:1 molar ratio of MA and SAC were mixed using a mortar and pestle. This blend was dissolved in ethyl acetate at 50° C. in a glass beaker using a magnetic stirrer-hotplate. Once the physical mixture was dissolved, the solvent was placed on an ice bath to induce nucleation of the cocrystals, the beaker was then placed in fume hood until all the solvent was evaporated. After the solvent was evaporated, the crystals were placed in an oven at 60° C. to remove any residual solvent. The resultant crystals were tested for modulated differential scanning calorimetry. A clear phase separation was observed where crystals with two different habits were developed. Samples for each phase were collected and exposed to thermal analysis.

[3] = cited from earlier work; remark: listed apart in the source
[4] = Preformulation studies with Kollidon VA64 (decomposition of mefenamic acid); format: physicochemical; conditions: presence of Kollidon VA64
[5] = HPLC with mass spectrophotometer of hot melt extruded mefenamic acid (degradant identification); format: physicochemical

Compound | Log P [1] | Soluble in solvent ACN [2] | Soluble in solvent Et—OH [2] | Soluble in solvent Me—OH [2] | Soluble in solvent ET-Acetate [2] | pKa [3] | effect of Kollidon VA64 on decomposition of mefenamic acid [4] | degradation or decarboxylation in the extruded samples ([5]; continuous, solvent-free, polymer assisted hot melt extrusion) | degradation on hot melt extrusion processing (mass spectroscopy) ([5]; processed with saccharin by HME at 200° C., 180° C., 170° C. and 160° C., no polymer carrier)
O=C1NS(=O)(=O)c2ccccc21 [Saccharin] | 0.91 | Yes | No | Yes | Yes | 1.31 | – | – | –
Cc1cccc(Nc2ccccc2C(=O)O)c1C [Mefenamic acid] | – | No | Yes | No | Yes | – | can delay the decomposition | no degradation or decarboxylation | decarboxylation
